Here are results for four molecules from patent US4550118A, “Heterocyclic compounds” (Ikeda Mohando Co., Ltd., priority 1982, dated 1985).

Data set [1] concerns acid secretion in pylorus-ligated rats. As to the kind of experiment: Anti-secretory effect (histamine-stimulated gastric acid secretion) in pylorus-ligated rat. In kind it is in vivo, male wistar rats. To be noted: Rattus norvegicus, sc, 3 h; 2 mg/kg s.c., 30 min before histamine 3 mg/kg s.c.; n=5; * significant at 5%, ** at 1% vs control; read-out: inhibitory effect of acid secretion (%) at 2 mg/kg s.c. As for the experimental part: (A) Anti-secretory Effect in Pylorus-ligated Rat
After 24 hr fasting, male wistar rats weighing about 160 g were anesthetized by intraperitoreal injection of urethans 1.2 g/kg. Then, after ligating the pylorus and the esophagus, the proventriculus was incised and a double polyethylene cannula was inserted. The gastric wall was washed out with 5 ml of physiological saline every 30 minutes and the amount of acid contained in the saline after washing was measured by titration. After measuring the basal acid secretion of the pylorus ligated rats three times, the compounds of the invention, 2 mg/kg, were administered subcutaneously and, 30 minutes thereafter, histamine 3 mg/kg, was administered also subcutaneously. Then, the amounts of acid secretion were measured for 3 hours. […] Then, an inhibition rate was calculated in accordance with the following formula, in relation to the increment values measured for the control group. [formula]
One group included five examples.

In data set [2] the target is T1, histamine H2 receptor in atria (Cavia porcellus, UniProt P47747).
T1 construct: right atrium was isolated; from tissue; host or cells: isolated right atrium of male Hartley guinea pig
As to the kind of experiment: Histamine H2 receptor inhibition effect by isolated guinea pig right atrium preparation (negative chronotropic effect). To be noted: 5×10^-6 mol sample 3 minutes prior to histamine, mean of five, read-out: inhibitory effect of histamine H2 receptor in atria (pA2 value) (converted). It counts as cell-based, Male Hartley Guinea Pig. As for the experimental part: (B) Measurement of Histamine H2 Receptor Inhibition Effect by Isolated Guinea Pig Right Atrium Preparation
Male Hartley Guinea Pig weighing around 400 g was sacrified by decapitation, and right atrium was isolated. The right atrium was suspended in an organ bath (50 ml) containing modified Ringer solution. Under application of a tensile load of 1 g, the heart rate was recorded by means of a polygraph. Histamine was applied cumulatively from 1×10^-7 mol to 3×10^-4 mol and a cumulative dosage response curve was drawn. Then, 5×10^-6 mol of the sample was administered 3 minutes prios to histamine application. The negative logarithmic value (pA2) of the specimen molarity required for shifting the curve to the right to double concentration was calculated.

The subject of another data set is gastric mucus secretion. The experiment in a line: Effect on gastric mucus secretion in rats (alcian blue binding). It counts as in vivo, Wistar male rats. The settings on record: 10 mg/kg × 2/day orally for 7 days, * significant at 5%, ** at 1%; for Alcian blue binding: 7 rats; for % Change (Alcian blue binding): vs control (0.5% CMC). As to the method: The test compounds were administered orally to Wistar male rats weighing from 160 to 180 g so as to investigate the effect on gastric mucus secretion. The amount of mucus was determined using alcian blue color specifically bonding with acid mucosaccharides, and was expressed by the amount of color bonding with a unit weight (OD units/g tissue). The test compounds were administered at a dosage of 10 mg/kg twice a day for 7 days, and the rats were sacrificed one hour after the final administration in the morning on the 8th day by cervical dislocation. After laparatomy, the stomach was removed. After removal of the forestomach, an incision was made along the greater curvatura. The stomach was lightly washed with a 0.25M sucrose solution cooled with ice. The weight was determined after absorption of water with a filter paper.
Then, the stomach was exposed for 1.5 hrs in 10 ml of 0.25M sucrose solution containing 0.1% alcian blue 8 GX for staining. Then, the stained stomach was washed with 10 ml of a 0.25M sucrose for 15 min, being dipped in 15 ml of a 0.5M MgCl2 for 2 hrs so as to elute alcian blue combined with the mucus. Finally, 10 ml of ethyl ether was added, and the mixture was shaken vigorously. The floating substances were removed, and the aqueous layer was quantified by measuring the absorption at 605 nm.
The above procedures were carried out at room temperature.

Data set [3] can be described thus: Acute oral toxicity test in mice (LD50, Litchfield-Wilcoxon). The settings on record: mouse, in vivo. As to the method:
Male dd-mice were divided into groups of 5 and fasted for 8 hours. The test compounds were administered orally to the mice weighing from 19.7 g. to 22.0 g. The mice were observed survival or death as well as the general symptoms over 7 days after the administration of the compounds. The value of LD50 for each compound was estimated from the mortality observed on the basis of the Litchfield-Wilcoxon method.
In a similar test, the test compound of example 27, 35, 66, 84, 97, 104, 118, 125 or 129 was administered orally to the mice at a dose of 1500 mg/kg.

T1 sequence (P47747 whole entry): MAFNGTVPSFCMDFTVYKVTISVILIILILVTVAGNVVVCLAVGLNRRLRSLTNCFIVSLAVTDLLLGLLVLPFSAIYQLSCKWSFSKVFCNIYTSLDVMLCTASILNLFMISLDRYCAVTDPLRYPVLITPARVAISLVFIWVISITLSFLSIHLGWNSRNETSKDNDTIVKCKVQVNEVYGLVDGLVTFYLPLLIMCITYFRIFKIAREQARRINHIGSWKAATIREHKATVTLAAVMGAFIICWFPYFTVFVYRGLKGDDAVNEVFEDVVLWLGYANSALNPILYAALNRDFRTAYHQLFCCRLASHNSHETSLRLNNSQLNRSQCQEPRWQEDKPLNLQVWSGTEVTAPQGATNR

Consider `CN(C)Cc1nc2cc(CSCCNc3n[s+]([O-])nc3N)ccc2[nH]1` (stereo not shown) [Example 103, 3-[2-<5-(2-dimethylaminomethylbenzimidazolyl)methylthio>ethyl]amino-4-amino-1,2,5-thiadiazol-1-oxide], for which the inhibition in vivo at 2 mg/kg in data set [1] was determined as 98%. Also, in data set [2], the Kb is 0.575 µM. For the same molecule, in the data set on gastric mucus secretion, the Alcian blue binding was 0.31 ± 0.02 OD units/g tissue and the “% Change (Alcian blue binding)” value is “+14.8%”. In data set [3] (oral, groups of 5, 7 days observation), this molecule registered an LD50 at 168 h above 4000 mg/kg.

For `CN(C)Cc1nc2cc(CSCCNc3nc(N)nn3C)ccc2[nH]1` [Example 97, 1-methyl-5-[2-<5-(2-dimethylaminomethylbenzimidazolyl)-methylthio>ethyl]-1H-1,2,4-triazole-3,5-diamine], the inhibition in vivo at 2 mg/kg in data set [1] stood at 76%. Further, the Kb in data set [2] was 0.891 µM. In the data set with gastric mucus secretion, the Alcian blue binding is on record as 0.49 ± 0.02 OD units/g tissue and the “% Change (Alcian blue binding)” value was “+37.4%”. Further, the LD50 at 168 h in data set [3] (similar test, oral dose of 1500 mg/kg) was above 1500 mg/kg.

Consider `CNC(=NC#N)NCCCOc1ccc2[nH]c(NC(=N)N)nc2c1` [Example 8, N-cyano-N'-methyl-N"-[3-<5-(2-guanidinobenzimidazolyl)oxypropyl] guanidine], for which, in the data set with gastric mucus secretion, the Alcian blue binding was 0.55 ± 0.04 OD units/g tissue and the “% Change (Alcian blue binding)” value is “+52.5%”.

In the case of `CN(C)Cc1cccc(Cc2cnc(NCCSCc3ccc4[nH]c(CN(C)C)nc4c3)[nH]c2=O)c1` [Example 78, 2-[2-<5-(2-dimethylaminomethylbenzimidazolyl)methylthio>ethylamino]-5-(3-dimethylaminomethylbenzyl)-4-pyrimidone], in data set [1], the inhibition in vivo at 2 mg/kg came to 107%. For the same molecule, the Kb in data set [2] was 1.78 µM. Moreover, in the data set with gastric mucus secretion, the Alcian blue binding is 0.45 ± 0.04 OD units/g tissue and the “% Change (Alcian blue binding)” value is given as “+24.6%”.

Broadly, the LD50 is the dose at which mortality reaches 50%.
